On to `CCNC(=O)C(=O)C(Cc1ccc(OC)cc1)NC(=O)C(CC(C)C)NC(=O)C(Cc1cccc2ccccc12)NC(=O)CCCCC1CCSS1` (stereo not shown) [Example 637], for which the melting point is 188 to 190 °C.

(Values after US20070293486A1, “Alpha-Keto Carbonyl Calpain Inhibitors” (SANTHERA PHARMACEUTICALS (SCHWEIZ) AG, priority 2004, published 2007).)
